The source of these data is publication PMC11768370, “Etodolac Single Dose Metabolic Profile Elucidation: Pharmacokinetics and Adverse Events in Healthy Volunteers” (Pharmaceuticals, 2025).

On the set-up of series [1]: method as in PMID 36959150. The conditions noted are these: cited from earlier work.
The nature of series [2]: Etodolac pharmacokinetic profile after a single dose, plasma LC-MS/MS, non-compartmental. It counts as in vivo, human. How it is done:
The analytical method used to calculate the pharmacokinetic parameters was validated according to Resolution No. 27/2012 of the Agência Nacional de Vigilância Sanitária (ANVISA). In this study, an LC-MS/MS system was used to quantify ETO. Chromatographic separations were performed using an LC-20AD analytical pump (Shimadzu, Kyoto, Japan) and a SIL-20A HT autosampler (Shimadzu, Kyoto, Japan), coupled to a Quattro Micro (Micromass, Newcastle, UK) system for triple quadrupole mass spectrometry analyses with an electrospray ionization (ESI) source (Waters, Newcastle, UK). The targeted analysis for ETO was detected by a multiple reaction monitoring (MRM) transition of 286 > 242, and mefenamic acid (Internal Standard) was detected by an MRM transition of 240 > 196 in negative acquisition mode. Data were collected using MassLynx 4.1 (Waters, Newcastle, UK). Further information on the validation method can be found in Supplementary Materials and Methods. WinNonLin 8.3 software (Pharsight, New Jersey, USA) was used to calculate pharmacokinetic parameters using non-compartmental statistics. […]
Table S3. Pharmacokinetics parameters. Pharmacokinetics parameters were calculated for each participant using the concentration across time data. […]
1. Volunteers and Study Design
The present study was nested in a single-dose, open-label, randomized pharmaco-bioequivalence study performed under biosafety and ethical standards. The reference formulation was an etodolac controlled-release coated tablet of 500 mg Flancox® with the administration of one single-dose tablet.
The volunteers were hospitalized at 7:00 p.m. and had supper before 9:00 p.m. After an overnight fast, a speciﬁc high-calorie diet was administered 30 minutes before taking the medication. They received (at ∼7:00 a.m.) a tablet of 500 mg of etodolac with 200 mL of water. Lunch: 4 hours after taking the medication. Afternoon snack: 8 hours after taking the medication. Dinner: 10 hours after […]
At 2 h before and 6, 8, and 12 h after the dose administration, vital signs were checked. The […] period was 24 h, during which period, blood samples (5 mL) from a suitable antecubital vein were collected, post-dosing via an indwelling catheter, into ethylenediaminetetraacetic acid […]
for 10 min at 4°C, and the plasma was stored at -70°C until assayed. Samples were handled under yellow light due to the photosensitivity of the drug.
2. Determination of Pharmacokinetic Proﬁle by LC-MS/MS
Chromatographic separations were performed in an LC-20AD analytical pump and SIL-20A HT autosampler from Shimadzu. The stationary phase employed an Agilent Polaris 5 µm C18-A 50 x […]
2,0mm column (Phenomenex). The mobile phase consisted of a solution of acetonitrile and 5 mM ammonium acetate, ﬂowing at 0.3 mL/min in proportion (8:2). The autosampler was maintained at 22°C, with an injection volume of 5 µl and 2.5-minute duration. Mass spectrometry was conducted on a Quattro Micro mass spectrometer from Micromass, equipped with an electrospray ionization (ESI) source. While operating in negative ionization mode with nitrogen as the desolvation gas, ESI source parameters were set as follows: source temperature of 100°C, desolvation temperature of 450°C, desolvation ﬂow of 800 L h-1, and capillary voltage of 3,50 kV. Etodolac was detected by a multiple reaction monitoring (MRM) transition of 286 > 242 using a cone voltage of 30 eV, and mefenamic acid was detected by an MRM transition of 240 > 196 using a cone voltage of 30 eV. Data was acquired using MassLynx 4.1.
2.1. Preparation of Standards and Quality Controls
Etodolac stock solution (108.5 µg/mL) was prepared in methanol and diluted with H2O to obtain the corrected stock solution (100 µg/mL) for the spiking calibration curve and quality controls (QC) samples. QC samples were prepared in the following levels: low, 0,6 µg/mL (LQC); medium, 50 µg/mL (MQC); high, 75 ug/mL (HQC); and a dilution, 42.5 µg/mL (DQC), calculated by taking the […]

The mark [3] stands for this setting: Maximum of 37 participants, single dose 500 mg.
[4] abbreviates: Minimum of 37 participants, single dose 500 mg.
The mark [5] stands for this setting: individual participants P1-P37, single dose 500 mg.

Values joined by “and” are separate entries in the source; they are usually repeats but may differ in a detail not shown here. Equal values may be shown once. Read-outs that look alike come from different tables or passages of the source.

In the case of `CCc1cccc2c3c([nH]c12)C(CC)(CC(=O)O)OCC3` (stereo not drawn) [Etodolac], in series [1], the solubility result was “poor solubility”. Moreover, in series [1] (dissolution rate-dependent absorption), the “Biopharmaceutics Classification System class” value is given as “BCS class II”. Moreover, the AUC0-t in series [2] (setting [3]) worked out at 480.52 µg·h/mL; in series [2] (setting [4]), 94.14 µg·h/mL; in series [2] (both sexes, human, oral, 500 mg, Mean of 37 participants, single dose 500 mg, read-out: AUC0-t), 203 µg·h/mL; in series [2] (both sexes, human, oral, overall mean (SD), 37 healthy volunteers, single dose Flancox 500 mg tablet after high-calorie diet, read-out: area under the curve from time zero to time t (AUC0-t)) it was 203 µg·h/mL. The Cmax was determined as 59070 ng/mL in series [2] (setting [3]); 18690 ng/mL in series [2] (setting [4]); 35500 ng/mL in series [2] (both sexes, human, oral, 500 mg, Mean of 37 participants, single dose 500 mg, read-out: Cmax); 35500 ng/mL in series [2] (both sexes, human, oral, 500 mg, overall mean (SD), 37 healthy volunteers, single dose Flancox 500 mg tablet after high-calorie diet, read-out: maximum concentration (Cmax)); 45680 ng/mL in series [2] (setting [5]). Moreover, the Kel stood at 0.15 h⁻¹ in series [2] (setting [3]) and 0.035 h⁻¹ in series [2] (setting [4]). Further, the T1/2 in series [2] (setting [3]) was determined as 20.09 h; in series [2] (setting [4]), 4.76 h. In addition, the Tmax in series [2] (setting [3]) was 5.00 h; in series [2] (setting [4]), 0.75 h; in series [2] (both sexes, human, oral, 500 mg, Mean of 37 participants, single dose 500 mg, read-out: Tmax), 2.24 h; in series [2] (both sexes, human, oral, 500 mg, overall mean (SD), 37 healthy volunteers, single dose Flancox 500 mg tablet after high-calorie diet, read-out: time to maximum concentration (Tmax)) it was 2.24 h; in series [2] (setting [5]), 2.25 h and 2.75 h and 1.50 h and 3.00 h and 1.25 h and 3.67 h and 4.00 h and 3.33 h and 2.50 h and 1.00 h and 2.00 h and 1.75 h and 5.00 h and 0.75 h. For the same molecule, the k el in series [2] (both sexes, human, oral, 500 mg, Mean of 37 participants, single dose 500 mg, read-out: Kel (converted)) is 2.5e-05 s⁻¹; in series [2] (both sexes, human, oral, 500 mg, overall mean (SD), 37 healthy volunteers, single dose Flancox 500 mg tablet after high-calorie diet, read-out: elimination rate constant (Kel) (converted)), 2.5e-05 s⁻¹. For the same molecule, the half-life in series [2] (both sexes, human, oral, 500 mg, Mean of 37 participants, single dose 500 mg, read-out: T1/2 (converted)) is 8.2 h; in series [2] (both sexes, human, oral, 500 mg, overall mean (SD), 37 healthy volunteers, single dose Flancox 500 mg tablet after high-calorie diet, read-out: half-life (T1/2) (converted)), 8.2 h.
